Reference: ChEMBL document CHEMBL1201862, “PubChem BioAssay data set” (2004)
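Where inhibition never reached the appropriate level, the endpoint shown equals the highest concentration tested. Otherwise, values were interpolated linearly from a five-concentration, 48-hour dose response in 96-well plates. The concentration for 50% growth inhibition is given as GI50.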 Calls of active or inactive are those of the source. No stated cut-off is given here; in the data, active = GI50 up to about 1.1 µM and inactive = higher.

Key:
Assay in all cases: inhibition of tumour cell growth, NCI panel, 48 h
786-0 = system: 786-0
A549 = system: A549
ACHN = system: ACHN
CAKI-1 = system: CAKI-1
CCRF-CEM = system: CCRF-CEM
COLO 205 = system: COLO 205
DU-145 = system: DU-145
HCC 2998 = system: HCC 2998
HCT-116 = system: HCT-116
HCT-15 = system: HCT-15
HL-60 = system: HL-60
HOP-62 = system: HOP-62
HOP-92 = system: HOP-92
HT-29 = system: HT-29
Hs-578T = system: Hs-578T
IGROV-1 = system: IGROV-1
K562 = system: K562
KM12 = system: KM12
LOX IMVI = system: LOX IMVI
M14 = system: M14
MCF7 = system: MCF7
MDA-MB-231 = system: MDA-MB-231
MDA-MB-435 = system: MDA-MB-435
MDA-N = system: MDA-N
MOLT-4 = system: MOLT-4
Malme-3M = system: Malme-3M
NCI-H226 = system: NCI-H226
NCI-H23 = system: NCI-H23
NCI-H460 = system: NCI-H460
NCI-H522 = system: NCI-H522
NCI/ADR-RES = system: NCI/ADR-RES
OVCAR-3 = system: OVCAR-3
OVCAR-4 = system: OVCAR-4
OVCAR-5 = system: OVCAR-5
OVCAR-8 = system: OVCAR-8
PC-3 = system: PC-3
RPMI-8226 = system: RPMI-8226
RXF 393 = system: RXF 393
SF-268 = system: SF-268
SF-295 = system: SF-295
SF-539 = system: SF-539
SK-MEL-28 = system: SK-MEL-28
SK-MEL-2 = system: SK-MEL-2
SK-MEL-5 = system: SK-MEL-5
SK-OV-3 = system: SK-OV-3
SN12C = system: SN12C
SNB-19 = system: SNB-19
SNB-75 = system: SNB-75
SR = system: SR
SW-620 = system: SW-620
T47D = system: T47D
TK-10 = system: TK-10
U-251 = system: U-251
UACC-257 = system: UACC-257
UACC-62 = system: UACC-62
UO-31 = system: UO-31

`Cc1cn(C2C=CC(COP(=O)(OCC3=CC(=O)c4ccccc4C3=O)N(C)CCCCCl)O2)c(=O)[nH]c1=O` (stereo unspecified) was tested, and the GI50 (786-0) was 12.7 µM (inactive), the GI50 (A549) was 1.6 µM (inactive) and the GI50 (ACHN) was 13.6 µM (inactive). For the same molecule, the GI50 (CAKI-1) was 13.2 µM (inactive), the GI50 (CCRF-CEM) was 3.12 µM (inactive) and the GI50 (COLO 205) was 3.23 µM (inactive). For the same molecule, the GI50 (DU-145) was 1.57 µM (inactive), the GI50 (HCC 2998) was 1.24 µM (inactive) and the GI50 (HCT-116) was 14 µM (inactive). The GI50 (HCT-15) was 8.51 µM, the GI50 (HL-60) was 1.42 µM (inactive) and the GI50 (HOP-62) was 11.7 µM (inactive). For the same molecule, the GI50 (HOP-92) was 0.074 µM (active), the GI50 (HT-29) was 12.7 µM (inactive) and the GI50 (Hs-578T) was 3.9 µM (inactive). The GI50 (IGROV-1) was 10.6 µM (inactive), the GI50 (K562) was 5.81 µM (inactive) and the GI50 (KM12) was 10.6 µM (inactive). For the same molecule, the GI50 (LOX IMVI) was 2.38 µM (inactive), the GI50 (M14) was 1.18 µM (inactive) and the GI50 (MCF7) was 6.98 µM (inactive). The GI50 (MDA-MB-231) was 12.6 µM (inactive), the GI50 (MDA-MB-435) was 1.94 µM (inactive) and the GI50 (MDA-N) was 2.21 µM (inactive). For the same molecule, the GI50 (MOLT-4) was 0.15 µM (active), the GI50 (Malme-3M) was 0.363 µM (active) and the GI50 (NCI-H226) was 10.3 µM (inactive). For the same molecule, the GI50 (NCI-H23) was 2.39 µM (inactive), the GI50 (NCI-H460) was 2.49 µM (inactive) and the GI50 (NCI-H522) was 14.7 µM (inactive). The GI50 (NCI/ADR-RES) was 16.4 µM (inactive), the GI50 (OVCAR-3) was 3.5 µM (inactive) and the GI50 (OVCAR-4) was 11.1 µM (inactive). The GI50 (OVCAR-5) was 12.1 µM (inactive), the GI50 (OVCAR-8) was 13.7 µM (inactive) and the GI50 (PC-3) was 12.1 µM (inactive). For the same molecule, the GI50 (RPMI-8226) was 5.05 µM (inactive), the GI50 (RXF 393) was 2.5 µM (inactive) and the GI50 (SF-268) was 12.1 µM (inactive). The GI50 (SF-295) was 2.59 µM (inactive), the GI50 (SF-539) was 13.1 µM (inactive) and the GI50 (SK-MEL-28) was 5.15 µM (inactive). The GI50 (SK-MEL-2) was 13.2 µM (inactive), the GI50 (SK-MEL-5) was 0.813 µM (active) and the GI50 (SK-OV-3) was 11 µM (inactive). The GI50 (SN12C) was 11.6 µM (inactive), the GI50 (SNB-19) was 12 µM (inactive) and the GI50 (SNB-75) was 1.55 µM (inactive). The GI50 (SR) was 0.0473 µM (active), the GI50 (SW-620) was 5.13 µM (inactive) and the GI50 (T47D) was 2.09 µM (inactive). The GI50 (TK-10) was 20.7 µM (inactive), the GI50 (U-251) was 5.38 µM (inactive) and the GI50 (UACC-257) was 3.25 µM (inactive). The GI50 (UACC-62) was 3.75 µM (inactive) and the GI50 (UO-31) was 12.8 µM (inactive).
